{
  "source": "patent US11771730B2",
  "about": "“Combination of Rhodiola and Astragalus for the treatment of neurodegenerative diseases” (HUMAN BY NATURE, priority 2018, dated 2023)",
  "key": {"[1]": {"tested_on": "differentiated SH-SY5Y (cells) exposed to Aftin-5", "assay": "Curative test, Alzheimer model induced by Aftin-5 (10 μM): neurite length and cell counts", "assay_type": "cell-based, human", "settings": "10 μM Aftin-5 for 48 hours", "method": "All tests were performed in three technical replicates using 96-well microplates. After inoculation, SH-SY5Y cells were differentiated by exposure to retinoic acid (10 μM) for 4 days.\nAfter each test, the cells were fixed using a mixture of methanol and acetone at room temperature for 5 minutes, before staining the nuclei with Hoechst and immunostaining the B3 tubulin (secondary antibody conjugated to an Alexa 488 fluorochrome).\nModels of neurodegenerative diseases can be established in the laboratory using differentiated neuronal cell lines. Using chemical inducers (Aftin-5, in this case), a model of Alzheimer's disease can be obtained with the human neuroblastoma cell line SH-SY5Y. The neuroprotective and curative properties of the combination of extracts are evaluated following neurotoxic aggression by counting neurons and measuring the length of neurites.\nThe cells were exposed for 2 days with 10 μM of Aftin-5 alone. […] After fixation and labeling, neurite outgrowth and cell counts were evaluated using MetaXpress (Molecular Devices).\nThe images were obtained using an ImageXpress® Micro XLS (Molecular Devices) automated microscope with a 20× objective. […] Four fields per well were recorded and analyzed individually.\nThe images were analyzed using MetaXpress (Molecular Devices) software."}, "[2]": {"tested_on": "DNA repair systems in HepG2 cells", "assay": "DNA repair (Excision/Resynthesis, BER and NER) on lesion plasmid chip with extracts of treated HepG2 cells", "assay_type": "cell-based", "settings": "EMS alone"}},
  "data": [
    {"molecule": "CC[C@H](CO)Nc1nc(N(C)c2ccccc2)c2ncn(C(C)C)c2n1", "note": "[Aftin-5]", "values": [
      {"measurement": "neurite length compared to the control (inducer alone)", "setting": "[1]", "result": "significant reduction in neurite length"}
    ]},
    {"molecule": "CCOS(C)(=O)=O", "note": "[EMS, ethyl methane sulfonate]", "values": [
      {"measurement": "effect of genotoxic on repair of photoproducts (CPD-64), Nucleotide Excision Repair (NER)", "setting": "[2]", "result": "not affected"},
      {"measurement": "effect of genotoxic on Basic Excision Repair (BER)", "setting": "[2]; at least at the highest concentration tested (1 mM)", "result": "exclusively stimulates Basic Excision Repair (BER)"}
    ]}
  ]
}
